Reference: US10246401B2, “Crystalline form of chlorogenic acid and preparation method thereof” (SICHUAN JIUZHANG BIOLOGICAL SCIENCE AND TECHNOLOGY CO., LTD., priority 2014, dated 2019)
Values joined by “and” are separate entries in the source; they are usually repeats but may differ in a detail not shown here. Equal entries are not always repeated.

How the values were obtained:
[1] = Long-term stability test of chlorogenic acid crystal form; format: physicochemical
[2] = Residual solvent by gas chromatography (internal standard method); format: physicochemical; settings: Chinese Pharmacopoeia limit 0.5%
Protocol: […]; an appropriate amount of ethyl acetate was taken, weighed precisely, and N,N-dimethylformamide was added to prepare the solution containing 5 mg of ethyl acetate per 1 ml. 1 ml of the solution was accurately pipetted into a 10 ml volumetric flask, and 1 ml of the internal standard solution was precisely added, and diluted by adding N,N-dimethylformamide to the volume, and agitated to obtain the reference solution; 0.5 g of the chlorogenic acid crystal form prepared by Examples 1 and 2, and about 0.5 g of respective raw materials of each example, were taken and weighed precisely, then transferred to a 10 ml volumetric flask. 1 ml of the internal standard solution was added precisely, diluted with N,N-dimethylformamide to volume, and agitated, to obtain the testing solution. According to the gas chromatography method (the appendix V E of the second part of the Chinese Pharmacopoeia 2010), 30 m capillary column was used with 50% polyphenyl methylsiloxane as the stationary liquid, and its coating thickness was 1 μm. The column temperature was kept at 80° C. taking 1 μl of the reference solution and 1 μl of the testing solution were accurately taken, respectively, and injected into the gas chromatograph, to record the chromatogram. Calculating with the height ratio of peaks in accordance with internal standard method, the results are as follows: […]

[3] = 0-48 months, 18±2° C., relative humidity 60±10%
[4] = 0 month, 18±2° C., relative humidity 60±10%
[5] = 3 months, 18±2° C., relative humidity 60±10%
[6] = 6 months, 18±2° C., relative humidity 60±10%
[7] = 9 months, 18±2° C., relative humidity 60±10%
[8] = 12 months, 18±2° C., relative humidity 60±10%
[9] = 18 months, 18±2° C., relative humidity 60±10%
[10] = 24 months, 18±2° C., relative humidity 60±10%
[11] = 36 months, 18±2° C., relative humidity 60±10%
[12] = 48 months, 18±2° C., relative humidity 60±10%

O=C(/C=C/c1ccc(O)c(O)c1)O[C@@H]1C[C@](O)(C(=O)O)C[C@@H](O)[C@H]1O [Example 1, 3-O-caffeoylquinnic acid]
Content of chlorogenic acid over the long-term stability test [1, 3]: above 98% | Stability (overall conclusion of long-term test) [1, 3]: good stability | Appearance [1, 4]: almost white | Content (%) [1, 4]: 99.50% and 99.56% and 99.49% | Loss on drying (%) [1, 4]: 2.32% and 2.31% and 2.29% | Related substances (%) Other 2 [1, 4]: 0.140% and 0.137% and 0.144% | Related substances (%) Other 3 [1, 4]: 0.205% and 0.214% and 0.218% | Related substances (%) Other 4 [1, 4]: 0.045% and 0.049% and 0.048% | Related substances In total (%) [1, 4]: 0.488% and 0.499% and 0.511% | Appearance [1, 5]: almost white | Content (%) [1, 5]: 99.47% and 99.41% and 99.43% | Loss on drying (%) [1, 5]: 2.30% and 2.31% and 2.29% | Related substances (%) Other 2 [1, 5]: 0.142% and 0.151% and 0.148% | Related substances (%) Other 3 [1, 5]: 0.230% and 0.237% and 0.228% | Related substances (%) Other 4 [1, 5]: 0.049% and 0.050% and 0.046% | Related substances In total (%) [1, 5]: 0.523% and 0.543% and 0.525% | Appearance [1, 6]: almost white | Content (%) [1, 6]: 99.44% and 99.38% and 99.42% | Loss on drying (%) [1, 6]: 2.31% and 2.29% and 2.28% | Related substances (%) Other 2 [1, 6]: 0.146% and 0.154% and 0.155% | Related substances (%) Other 3 [1, 6]: 0.234% and 0.240% and 0.231% | Related substances (%) Other 4 [1, 6]: 0.054% and 0.056% and 0.053% | Related substances In total (%) [1, 6]: 0.541% and 0.563% and 0.548% | Appearance [1, 7]: almost white | Content (%) [1, 7]: 99.38% and 99.30% and 99.33% | Loss on drying (%) [1, 7]: 2.32% and 2.31% | Related substances (%) Other 2 [1, 7]: 0.162% and 0.167% and 0.165% | Related substances (%) Other 3 [1, 7]: 0.255% and 0.261% and 0.252% | Related substances (%) Other 4 [1, 7]: 0.058% and 0.061% and 0.060% | Related substances In total (%) [1, 7]: 0.591% and 0.611% and 0.595% | Appearance [1, 8]: almost white | Content (%) [1, 8]: 99.32% and 99.27% and 99.23% | Loss on drying (%) [1, 8]: 2.28% and 2.31% and 2.29% | Related substances (%) Other 2 [1, 8]: 0.163% and 0.168% and 0.169% | Related substances (%) Other 3 [1, 8]: 0.260% and 0.264% and 0.265% | Related substances (%) Other 4 [1, 8]: 0.062% and 0.063% | Related substances In total (%) [1, 8]: 0.606% and 0.623% and 0.627% | Appearance [1, 9]: almost white | Content (%) [1, 9]: 99.18% and 99.26% and 99.24% | Loss on drying (%) [1, 9]: 2.30% and 2.29% and 2.28% | Related substances (%) Other 2 [1, 9]: 0.179% and 0.174% | Related substances (%) Other 3 [1, 9]: 0.279% and 0.270% and 0.272% | Related substances (%) Other 4 [1, 9]: 0.065% and 0.067% | Related substances In total (%) [1, 9]: 0.660% and 0.643% and 0.647% | Appearance [1, 10]: almost white | Content (%) [1, 10]: 99.17% and 99.10% and 99.14% | Loss on drying (%) [1, 10]: 2.32% and 2.30% and 2.31% | Related substances (%) Other 2 [1, 10]: 0.178% and 0.187% and 0.185% | Related substances (%) Other 3 [1, 10]: 0.278% and 0.292% and 0.286% | Related substances (%) Other 4 [1, 10]: 0.070% and 0.074% and 0.072% | Related substances In total (%) [1, 10]: 0.666% and 0.697% and 0.685% | Appearance [1, 11]: almost white | Content (%) [1, 11]: 99.13% and 99.05% and 99.02% | Loss on drying (%) [1, 11]: 2.32% and 2.31% | Related substances (%) Other 2 [1, 11]: 0.190% and 0.194% and 0.196% | Related substances (%) Other 3 [1, 11]: 0.299% and 0.301% and 0.302% | Related substances (%) Other 4 [1, 11]: 0.076% and 0.074% and 0.078% | Related substances In total (%) [1, 11]: 0.713% and 0.719% and 0.732% | Appearance [1, 12]: almost white | Content (%) [1, 12]: 98.85% and 98.74% and 98.80% | Loss on drying (%) [1, 12]: 2.34% and 2.38% and 2.36% | Related substances (%) Other 2 [1, 12]: 0.219% and 0.222% and 0.218% | Related substances (%) Other 3 [1, 12]: 0.303% and 0.309% and 0.306% | Related substances (%) Other 4 [1, 12]: 0.092% and 0.095% and 0.091% | Related substances In total (%) [1, 12]: 0.770% and 0.787% and 0.772% | Crystal form examination by microscope ([1]; at the end of 12, 24, 36 and 48 months, 18±2° C., relative humidity 60±10%): single lamellar crystal | Stability on storage ([1]; within 48 months, stored in the cool and dark place): does not change obviously | Residual solvent Ethyl acetate (%) ([2]; listed as Sample obtained in Example 1): 0.254%

O=C(/C=C/c1ccc(O)c(O)c1)O[C@@H]1C[C@](O)(C(=O)O)C[C@@H](O)[C@H]1O [Raw material of Example 1, 3-O-caffeoylquinnic acid]
Residual solvent Ethyl acetate (%) [2]: 1.764%

O=C(/C=C/c1ccc(O)c(O)c1)O[C@@H]1C[C@](O)(C(=O)O)C[C@@H](O)[C@H]1O [Raw material of Example 2, 3-O-caffeoylquinnic acid]
Residual solvent Ethyl acetate (%) [2]: 2.314%

O=C(/C=C/c1ccc(O)c(O)c1)O[C@@H]1C[C@](O)(C(=O)O)C[C@@H](O)[C@H]1O [Sample obtained in Example 2, 3-O-caffeoylquinnic acid]
Residual solvent Ethyl acetate (%) [2]: 0.252%
